# Measurements taken from patent publication US8754233B2, “Pyrazolylbenzothiazole derivatives and their use as therapeutic agents” (Dermira (Canada), Inc., priority 2002, dated 2014).
# Key:
# [1] = tested on: HUVEC; conditions: HUVEC on Matrigel, VEGF 1 ng/mL, 5 hours
# Description: Angiogenesis, the formation of new blood vessels from pre-existing endothelium, is a critical process involved in numerous physiological and pathological conditions. Disruption of this tightly regulated process has been implicated in both chronic inflammation and solid tumour growth. The Matrigel™ morphogenesis assay is an in vitro model used to mimic the process by which endothelial cells form capillaries in vivo. Human umbilical vein endothelial cells (HUVECs) were plated over matrigel, a complex mixture of solubilized basement membrane components, and cultured in serum poor medium with specific growth factors and in the presence of the test compound. […] After 5 hours of incubation in a 5% CO2-humidified atmosphere at 37° C., the three-dimensional organization of the cells (the capillary-like structures) was examined using an inverted photomicroscope. The cells were fixed with crystal violet (0.05% in 20% ethanol) and photographed using a digital camera. Qualitative analysis was accomplished by comparing the pattern, size and integrity of the vessels formed in the test wells with those of the VEGF control wells. Quantitative analysis was performed on the images collected using the Image-Pro Plus software program.
# [2] = tested on: ConA 1° splenocytes; assay: Survival of ConA 1° splenocytes (cytotoxicity by MTS staining); assay type: cell-based, mouse; conditions: Mus musculus, Splenocyte, ConA-stimulated splenocytes
# Description: The working concentration of ConA was […]. A 20× working concentration of Concanavalin A was […] was prepared using RPMI-5. The test compounds, dimethylsulfoxide (DMSO) negative vehicle control and staurosporine positive control were diluted twenty times using RPMI-5. Ten μL each of DMSO and staurosporine were combined with 180 μl of medium containing splenocytes in the wells, and 10 μl of 50 μg/ml ConA was immediately added. Medium without ConA was added to the control wells. […] The plates were incubated at 37° C. in 5% CO2 in humidified conditions overnight (18-24 hours) for INFγ.
# (MTS). The MTS solution was made fresh and under low light. The electron coupling reagent phenazine methosulfate (PMS) was added at the time of the assay. Twenty μL of MTS solution per 100 μl of tissue culture medium was added to each well. The plates were incubated 37° C. for 4 hours for unstimulated and 18-24 ConA stimulated splenocytes. The absorbance was read at 490 nm wavelength. A kit available to do this assay is “CellTiter 96® AQ Kit AQueous Kit (G5421)” by Promega.
# [3] = tested on: IL-12 on macrophages; assay: Inhibition of IL-12 release from stimulated macrophages; assay type: cell-based, mouse; conditions: Mus musculus, Macrophage; LPS and IFN-γ stimulated primary macrophages, ELISA
# Description: Peritoneal exudate macrophages were isolated by peritoneal lavage with ice-cold sterile physiological saline 24 hours after intraperitoneal injection of BALB/c mice with 0.5 mL of sterile Zymosan A (1 mg/0.5 mL 0.9% saline). […] Murine primary macrophage are activated following incubation with LPS in the presence of sub-optimal doses of IFN-γ. Upon activation, macrophages participate actively in the onset of inflammation by releasing bioactive molecules that amplify the initial inflammatory response. […] Briefly, IL-12 levels in the supernatants from stimulated macrophages were determined with PharMingen's OptEIA™ ELISA set developed using an anti-mouse IL-12 antibody pair and mouse rIL-12 standard (PharMingen). Maxisorp™ F16 multiwell strips (Nunc, Roskilde, Denmark) were coated with anti-mouse IL-12 capture Ab (at recommended concentration) in 0.1 M NaHCO3, pH 9.5, 100 μL/well, overnight at 4° C. […] Plates were washed 3× with PBST and duplicate samples (100 μL/well) or standards (100 μL/well) in diluent buffer were incubated for 2 h. Plates were washed five times with PBST and incubated with biotinylated anti-mouse IL-12 and avidin-horseradish peroxidase (HRP) conjugate (at concentrations recommended by the manufacturer) for 1 h. […] Peritoneal exudate macrophages were isolated by peritoneal lavage with ice-cold sterile physiological saline 24 hours after intraperitoneal injection of BALB/c mice with 0.3 ml of sterile zymosan A (1 mg/0.5 mL 0.9% saline). […] All treatments were replicated six times. Cells were incubated for an additional 24 hours, and cell free culture supernatants from each well were collected for NO and cytokine determination. The remaining cells were stained with crystal violet to determine effect of the compound on cell survival.
# [4] = tested on: macrophages; assay: Survival of macrophages; assay type: cell-based, mouse; conditions: Mus musculus, Macrophage; stimulated primary macrophages
# Description: Peritoneal exudate macrophages were isolated by peritoneal lavage with ice-cold sterile physiological saline 24 hours after intraperitoneal injection of BALB/c mice with 0.3 ml of sterile zymosan A (1 mg/0.5 mL 0.9% saline). […] 1.5×10^5 cells/well were seeded in 96-well plates and followed by 3 hour incubation at 37° C. with 5% CO2 (macrophages were allowed to attach) cells were stimulated with LPS ([…]/mL) and IFN-γ (100 U/mL) in the absence or presence of the test compounds. All treatments were replicated six times. Cells were incubated for an additional 24 hours, and cell free culture supernatants from each well were collected for NO and cytokine determination. The remaining cells were stained with crystal violet to determine effect of the compound on cell survival.
# [5] = tested on: Nitric Oxide On Stimulated Macrophages; assay: Inhibition of nitric oxide on stimulated macrophages; assay type: cell-based; conditions: Mus musculus, Macrophage, 25 μM compound
# Description: Peritoneal exudate macrophages were isolated by peritoneal lavage with ice-cold sterile physiological saline 24 hours after intraperitoneal injection of BALB/c mice with 0.3 ml of sterile zymosan A (1 mg/0.5 mL 0.9% saline). […] All treatments were replicated six times. Cells were incubated for an additional 24 hours, and cell free culture supernatants from each well were collected for NO and cytokine determination. The remaining cells were stained with crystal violet to determine effect of the compound on cell survival. […] The absorbance at 550 nm was determined. All measurements were performed six times.
# [6] = tested on: PC3 Cells; assay: Tumor cell migration assay; assay type: cell-based; conditions: Homo sapiens, PC-3, 25 μM compound
# Description: The invasion test system (BD Bioscience's BioCoat™ FluoroBlok™ Invasion System including BD BioCoat™ Matrigel™ Invasion Chambers with the fluorescence blocking membrane FluoroBlok™ 24-Multiwell Insert System™) is removed from the package from −20° C. storage and allowed to warm to ambient temperature. PBS is added to the interior of the inserts and they are allowed to rehydrate for 2 hours at 37° C. The medium is then removed and 450 μL cell suspensions of tumor cells (grown to 50-70% confluence, trypsinized, and resuspended in medium without serum at 1×10^6/mL) is added to the top chamber. Test compounds are added to the top chamber at 10× the desired final concentration in 50 μL volumes. DMSO acts as the control. […]
# Data is expressed as fluorescence units (FU) from the sum of middle 25 areas per 24-well or as percentage of invasion inhibition by following formula: % of invasion inhibition=100−FU of compound treated cell invasion/FU of DMSO treated cell invasion*100.
# Tumor cell migration assay was conducted in the similar way as described in Example 16 except that the plates used were constructed with only a porous membrane dividing a top and bottom chamber without the additional thin Matrigel™ layer on top of the membrane (BD Fluoroblock™ plates). The percent inhibition of migration was determined in the same way as illustrated in Example 16.
# [7] = molecular target: ILK (Homo sapiens (Human), UniProt Q13418); assay: Inhibition of ILK in vitro enzyme assay; conditions: read-out: IC50 avg. value; recombinant ILK, [γ-32P]-ATP, 15 minutes at ambient temperature
# Chain of ILK (Q13418 whole entry): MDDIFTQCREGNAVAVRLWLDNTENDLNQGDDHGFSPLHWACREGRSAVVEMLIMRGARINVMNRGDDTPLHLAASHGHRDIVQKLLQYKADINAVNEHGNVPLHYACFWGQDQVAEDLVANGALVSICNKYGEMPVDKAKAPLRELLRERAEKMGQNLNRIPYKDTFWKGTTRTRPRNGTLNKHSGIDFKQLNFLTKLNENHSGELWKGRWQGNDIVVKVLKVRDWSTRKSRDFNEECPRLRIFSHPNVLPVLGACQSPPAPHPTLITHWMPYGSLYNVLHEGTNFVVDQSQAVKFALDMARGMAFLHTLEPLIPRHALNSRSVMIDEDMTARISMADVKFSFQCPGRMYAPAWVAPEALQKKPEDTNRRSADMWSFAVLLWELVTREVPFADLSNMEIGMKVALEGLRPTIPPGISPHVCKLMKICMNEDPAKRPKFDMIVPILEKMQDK
# Description: The target ILK is a full-length recombinant protein expressed in Hi5 insect cells by baculovirus infection. Recombinant ILK protein was expressed using cultured insect cells and a baculovirus expression system. […] This ILK transfer construct was then co-transfected with BaculoGold™ DNA (Pharmingen) into Sf9 insect cells (Invitrogen) and a high titre preparation of GST-ILK recombinant baculovirus was produced by amplification in Sf9 cells. Liter scale expression of GST-ILK recombinant protein was done in 1000 mL spinner flasks (Bellco) by infection of Hi5 insect cells (Invitrogen) grown in Ex-Cell™ 400 serum free media (JRH Biosciences) at a multiplicity of infection of approximately 5. […]
# From each assay mixture, 10 μL of assay mixture was spotted onto Millipore Multiscreen-PH™ opaque plates and washed twice for 10 minutes in 1% phosphoric acid. The plates were dried at 40° C. for 30 minutes, then substrate-phosphate complexes were quantitated by scintillation counting. […]
# Inhibition of ILK by the test compounds is measured by scintillation counting of the incorporation of radioactive phosphate onto a specific substrate which is immobilized onto a filter paper at the end of the assay. […]
# The “baseline activity” is the amount of radioactivity incorporated in the absence of a target inhibitor.
smiles,measurement,setting,value
Cc1[nH]nc(N)c1-c1nc2ccccc2s1 [4-Benzothiazol-2-yl-5-methyl-1H-pyrazol-3-ylamine],% Inhibition of angiogenesis,[1],64%
Nc1[nH]nc(-c2ccncc2)c1-c1nc2ccccc2s1 [4-Benzothiazol-2-yl-5-pyridin-4-yl-2H-pyrazol-3-ylamine],IC50,[2],> 25 µM
same,IC50,[3],> 25 µM
same,IC50,[4],> 25 µM
Nc1n[nH]c(N2CCCC2)c1-c1nc2ccccc2s1 [4-Benzothiazol-2-yl-5-pyrrolidin-1-yl-1H-pyrazol-3-ylamine],% Inhibition of angiogenesis,[1],50%
"Nc1n[nH]c(N)c1-c1nc2ccccc2s1 [4-Benzothiazol-2-yl-1H-pyrazole-3,5-diamine]",% Inhibition of angiogenesis,[1],32%
"Nc1n[nH]c(Nc2ccc3ncccc3c2)c1-c1nc2ccccc2s1 [4-Benzothiazol-2-yl-N^5-quinolin-6-yl-1H-pyrazole-3,5-diamine]",inhibition at 25 µM,[5],66.1%
same,inhibition at 25 µM,[6],81%
CSc1[nH]nc(N)c1-c1nc2ccccc2s1 [4-Benzothiazol-2-yl-5-methylsulfanyl-1H-pyrazol-3-ylamine],% Inhibition of angiogenesis,[1],84%
"Oc1ccc(-c2n[nH]cc2-c2nc3ccccc3s2)c(O)c1 [4-(4-Benzothiazol-2-yl-1H-pyrazol-3-yl)-benzene-1,3-diol]",inhibition at 25 µM,[6],44.8%
same,IC50,[7],3.3 µM
